{
  "source": "patent US6573275B1",
  "about": "“Bicyclic amines” (Syngenta Limited, priority 1995, dated 2003)",
  "data": [
    {"test_system": "peach aphid (Myzus persicae)", "assay": "Insecticidal test against peach aphid, infested Chinese cabbage leaves sprayed", "type": "in vivo", "conditions": "peach aphid (Myzus persicae) on Chinese cabbage leaves, sprayed with 500 ppm composition unless otherwise stated, mortality assessed after 3 days", "description": "This Example illustrates the insecticidal properties of the compounds of Formula I. The activity of the compounds of Formula I was determined using a variety of pests. The pests were treated with a liquid composition containing 500 parts per million (ppm) by weight of the compound unless otherwise stated. The compositions were made by dissolving the compound in acetone and ethanol (50:50) mixture and diluting the solutions with water containing 0.05% by weight of a wetting agent sold under the trade name “SYNPERONIC” NP8 until the liquid composition contained the required concentration of the compound. “SYNPERONIC” is a Registered Trade Mark.\nThe test procedure adopted with regard to each pest was basically the same and comprised supporting a number of the pests on a medium which was usually a substrate, a host plant or a foodstuff on which the pests feed, and treating either or both the medium and the pests with the compositions. The mortality of the pests was then assessed at periods usually varying from two to five days after the treatment.\nIn this test Chinese cabbage leaves were infested with aphids, the infested leaves were sprayed with the test composition, and the mortality assessed after 3 days.", "values": [
      {"smiles": "COC(=O)C(C)N1C2CCC1CC(C#N)(c1cncc(Cl)c1)C2", "note": "(racemic) [Compound 212]", "Score (grading of mortality)": "A (A indicates 80-100% mortality)"},
      {"smiles": "COc1ccc(C2(C#N)CC3CCC(C2)N3Cc2ccccc2)cc1", "note": "(single isomer, unassigned) [Compound 6]", "Score (grading of mortality)": "C (C indicates less than 40% mortality)"},
      {"smiles": "COc1ccc(C2(C#N)CC3CCC(C2)N3Cc2ccccc2)cc1", "note": "(single isomer, unassigned) [Compound 7]", "Score (grading of mortality)": "C (C indicates less than 40% mortality)"},
      {"smiles": "N#CC1(c2ccccc2)CC2CCC(C1)N2Cc1ccccc1", "note": "(single isomer, unassigned) [Compound 31]", "Score (grading of mortality)": "C (C indicates less than 40% mortality)"},
      {"smiles": "N#CC1(c2ccccc2)CC2CCC(C1)N2Cc1ccccc1", "note": "(single isomer, unassigned) [Compound 32]", "Score (grading of mortality)": "A (A indicates 80-100% mortality)"},
      {"smiles": "COC(=O)C(C)N1C2CCC1CC(C#N)(c1cncc(Cl)c1)C2", "note": "(single isomer, unassigned) [Compound 211]", "Score (grading of mortality)": "A (A indicates 80-100% mortality)"},
      {"smiles": "COC(=O)C(C)N1C2CCC1CC(C#N)(c1cncc(Cl)c1)C2", "note": "(single isomer, unassigned) [Compound 213]", "Score (grading of mortality)": "A (A indicates 80-100% mortality)"},
      {"smiles": "CN1C2CCC1CC(C#N)(c1cc(Cl)cc(Cl)c1)C2", "note": "(stereo not shown) [Compound 1]", "Score (grading of mortality)": "A (A indicates 80-100% mortality)"},
      {"smiles": "CN1C2CCC1CC(C#N)(c1cc(F)cc(F)c1)C2", "note": "(stereo not drawn) [Compound 2, exo-3-(3,5-difluorophenyl)-endo-3-cyano-8-methyl-8-azabicyclo[3.2.1]octane]", "Score (grading of mortality)": "A (A indicates 80-100% mortality)"},
      {"smiles": "CN1C2CCC1CC(C#N)(c1cccc(F)c1F)C2", "note": "(stereo not shown) [Compound 3]", "Score (grading of mortality)": "A (A indicates 80-100% mortality)"},
      {"smiles": "CN1C2CCC1CC(C#N)(c1c(F)c(F)c(F)c(F)c1F)C2", "note": "(stereo not shown) [Compound 4]", "Score (grading of mortality)": "A (A indicates 80-100% mortality)"},
      {"smiles": "CN1C2CCC1CC(C#N)(c1cccc(Cl)c1Cl)C2", "note": "(stereo not shown) [Compound 5]", "Score (grading of mortality)": "A (A indicates 80-100% mortality)"},
      {"smiles": "N#CC1(c2ccccc2)CC2CCC(C1)N2Cc1ccccc1", "note": "(stereo not shown) [Compound 8, 3-phenyl-3-cyano-8-benzyl-8-azabicyclo[3.2.1]octane]", "Score (grading of mortality)": "A (A indicates 80-100% mortality)"},
      {"smiles": "N#CC1(c2cc(F)cc(F)c2)CC2CCC(C1)N2", "note": "(stereo not shown) [Compound 9]", "Score (grading of mortality)": "A (A indicates 80-100% mortality)"},
      {"smiles": "N#CC1(c2cc(F)cc(F)c2)CC2CCC(C1)N2Cc1ccccc1", "note": "(stereo not shown) [Compound 10]", "Score (grading of mortality)": "A (A indicates 80-100% mortality)"},
      {"smiles": "N#CC1(c2cc(F)cc(F)c2)CC2CCC(C1)N2Cc1cnc(Cl)c(Cl)c1", "note": "(stereo not shown) [Compound 11]", "Score (grading of mortality)": "A (A indicates 80-100% mortality)"},
      {"smiles": "N#CC1(c2cc(F)cc(F)c2)CC2CCC(C1)N2Cc1ccccn1", "note": "(stereo not shown) [Compound 12]", "Score (grading of mortality)": "A (A indicates 80-100% mortality)"},
      {"smiles": "Cc1cccc(CN2C3CCC2CC(C#N)(c2cc(F)cc(F)c2)C3)c1", "note": "(stereo not shown) [Compound 13]", "Score (grading of mortality)": "B (B indicates 40-79% mortality)"},
      {"smiles": "N#CC1(c2cc(F)cc(F)c2)CC2CCC(C1)N2Cc1ccc(Cl)cc1", "note": "(stereo not shown) [Compound 14]", "Score (grading of mortality)": "A (A indicates 80-100% mortality)"},
      {"smiles": "N#CC1(c2cc(F)cc(F)c2)CC2CCC(C1)N2Cc1cccnc1", "note": "(stereo not shown) [Compound 15]", "Score (grading of mortality)": "A (A indicates 80-100% mortality)"},
      {"smiles": "N#CC1(c2cc(F)cc(F)c2)CC2CCC(C1)N2Cc1cc(Cl)cc(Cl)c1", "note": "(stereo not shown) [Compound 17]", "Score (grading of mortality)": "C (C indicates less than 40% mortality)"},
      {"smiles": "N#CC1(c2cc(F)cc(F)c2)CC2CCC(C1)N2CC=C(F)F", "note": "(stereo not shown) [Compound 18]", "Score (grading of mortality)": "A (A indicates 80-100% mortality)"},
      {"smiles": "N#CC1(c2cc(F)cc(F)c2)CC2CCC(C1)N2CC(O)c1ccccc1", "note": "(stereo not shown) [Compound 19]", "Score (grading of mortality)": "C (C indicates less than 40% mortality)"},
      {"smiles": "N#CC1(c2cc(F)cc(F)c2)CC2CCC(C1)N2C(CO)c1ccccc1", "note": "(stereo not shown) [Compound 20]", "Score (grading of mortality)": "C (C indicates less than 40% mortality)"},
      {"smiles": "C=CCN1C2CCC1CC(C#N)(c1cc(F)cc(F)c1)C2", "note": "(stereo not shown) [Compound 21]", "Score (grading of mortality)": "A (A indicates 80-100% mortality)"},
      {"smiles": "C#CCN1C2CCC1CC(C#N)(c1cc(F)cc(F)c1)C2", "note": "(stereo not shown) [Compound 22]", "Score (grading of mortality)": "A (A indicates 80-100% mortality)"},
      {"smiles": "N#CC1(c2cc(F)cc(F)c2)CC2CCC(C1)N2CCF", "note": "(stereo not shown) [Compound 23]", "Score (grading of mortality)": "A (A indicates 80-100% mortality)"},
      {"smiles": "N#CC1(c2cc(F)cc(F)c2)CC2CCC(C1)N2CCO", "note": "(stereo not shown) [Compound 24]", "Score (grading of mortality)": "A (A indicates 80-100% mortality)"},
      {"smiles": "COCCN1C2CCC1CC(C#N)(c1cc(F)cc(F)c1)C2", "note": "(stereo not shown) [Compound 25]", "Score (grading of mortality)": "A (A indicates 80-100% mortality)"},
      {"smiles": "N#CCCN1C2CCC1CC(C#N)(c1cc(F)cc(F)c1)C2", "note": "(stereo not shown) [Compound 26]", "Score (grading of mortality)": "B (B indicates 40-79% mortality)"},
      {"smiles": "N#CC1(c2cc(F)cc(F)c2)CC2CCC(C1)N2Cc1ccc(Cl)s1", "note": "(stereo not shown) [Compound 27]", "Score (grading of mortality)": "A (A indicates 80-100% mortality)"},
      {"smiles": "N#CC1(c2cc(F)cc(F)c2)CC2CCC(C1)N2c1cccc(Cl)n1", "note": "(stereo not shown) [Compound 28]", "Score (grading of mortality)": "C (C indicates less than 40% mortality)"},
      {"smiles": "Cc1ncc(CN2C3CCC2CC(C#N)(c2cc(F)cc(F)c2)C3)s1", "note": "(stereo not shown) [Compound 29]", "Score (grading of mortality)": "B (B indicates 40-79% mortality)"},
      {"smiles": "COC(=N)CN1C2CCC1CC(C#N)(c1cc(F)cc(F)c1)C2", "note": "(stereo not shown) [Compound 30]", "Score (grading of mortality)": "A (A indicates 80-100% mortality)"},
      {"smiles": "CN1C2CCC1CC(C#N)(c1cccnc1)C2", "note": "(stereo not drawn) [Compound 33, exo-3-(pyrid-3-yl)-endo-3-cyano-8-methyl-8-azabicyclo[3.2.1]octane]", "Score (grading of mortality)": "A (A indicates 80-100% mortality)"},
      {"smiles": "N#C[C@@]1(c2cccnc2)C[C@H]2CC[C@@H](C1)N2CCF", "note": "[Compound 34, exo-3-(pyrid-3-yl)-endo-3-cyano-8-(2-fluoroethyl)-8-azabicyclo[3.2.1]octane]", "Score (grading of mortality)": "A (A indicates 80-100% mortality)"},
      {"smiles": "C=CCN1C2CCC1CC(C#N)(c1cccnc1)C2", "note": "(stereo not shown) [Compound 35]", "Score (grading of mortality)": "A (A indicates 80-100% mortality)"},
      {"smiles": "N#CC1(c2cccnc2)CC2CCC(C1)N2", "note": "(stereo not drawn) [Compound 36, exo-3-(pyrid-3-yl)-endo-3-cyano-8-azabicyclo[3.2.1]octane]", "Score (grading of mortality)": "A (A indicates 80-100% mortality)"},
      {"smiles": "N#CC1(c2cccnc2)CC2CCC(C1)N2Cc1ccccc1", "note": "(stereo not drawn) [Compound 37, exo-3-(pyrid-3-yl)-endo-3-cyano-8-benzyl-8-azabicyclo[3.2.1]octane]", "Score (grading of mortality)": "A (A indicates 80-100% mortality)"},
      {"smiles": "CCN1C2CCC1CC(C#N)(c1cccnc1)C2", "note": "(stereo not shown) [Compound 38]", "Score (grading of mortality)": "A (A indicates 80-100% mortality)"},
      {"smiles": "CC(C)(C)OC(=O)CN1C2CCC1CC(C#N)(c1cccnc1)C2", "note": "(stereo not shown) [Compound 39]", "Score (grading of mortality)": "C (C indicates less than 40% mortality)"},
      {"smiles": "C[n+]1cccc(C2(C#N)CC3CCC(C2)N3C(=O)OC(C)(C)C)c1.[I-]", "note": "(stereo not shown) [Compound 40]", "Score (grading of mortality)": "A (A indicates 80-100% mortality)"},
      {"smiles": "CN1C2CCC1CC(C#N)(c1ccc(Cl)nn1)C2", "note": "(stereo not drawn) [Compound 41, exo-3-(6-chloropyridazin-3-yl)-endo-3-cyano-8-methyl-8-azabicyclo[3.2.1]octane]", "Score (grading of mortality)": "A (A indicates 80-100% mortality)"},
      {"smiles": "CCCN1C2CCC1CC(C#N)(c1cccnc1)C2", "note": "(stereo not drawn) [Compound 42, exo-3-(pyrid-3-yl)-endo-3-cyano-8-(prop-1-yl)-8-azabicyclo[3.2.1]octane]", "Score (grading of mortality)": "A (A indicates 80-100% mortality)"},
      {"smiles": "CN1C2CCC1CC(C#N)(c1cncc(Cl)n1)C2", "note": "(stereo not drawn) [Compound 43, exo3-(6-chloropyrazin-2-yl)-endo-3-cyano-8-methyl-8-azabicyclo[3.2.1]octane]", "Score (grading of mortality)": "A (A indicates 80-100% mortality)"},
      {"smiles": "CS(=O)(=O)CS(=O)(=O)N1C2CCC1CC(C#N)(c1cccnc1)C2", "note": "(stereo not drawn) [Compound 44, exo-3-(pyrid-3-yl)-endo-3-cyano-8-(methylsulphonylmethylsulphonyl)-8-azabicyclo[3.2.1]octane]", "Score (grading of mortality)": "A (A indicates 80-100% mortality)"},
      {"smiles": "CS(=O)(=O)N1C2CCC1CC(C#N)(c1cccnc1)C2", "note": "(stereo not shown) [Compound 45]", "Score (grading of mortality)": "C (C indicates less than 40% mortality)"},
      {"smiles": "CN1C2CCC1CC(C#N)(c1ccc(Cl)nc1)C2", "note": "(stereo not drawn) [Compound 46, exo-3-(6-chloropyrid-3-yl)-endo-3-cyano-8-methyl-8-azabicyclo[3.2.1]octane]", "Score (grading of mortality)": "A (A indicates 80-100% mortality)"},
      {"smiles": "COCN1C2CCC1CC(C#N)(c1cccnc1)C2", "note": "(stereo not shown) [Compound 47]", "Score (grading of mortality)": "A (A indicates 80-100% mortality)"},
      {"smiles": "CCOCN1C2CCC1CC(C#N)(c1cccnc1)C2", "note": "(stereo not shown) [Compound 48]", "Score (grading of mortality)": "A (A indicates 80-100% mortality)"},
      {"smiles": "N#CCN1C2CCC1CC(C#N)(c1cccnc1)C2", "note": "(stereo not shown) [Compound 49]", "Score (grading of mortality)": "A (A indicates 80-100% mortality)"},
      {"smiles": "CCOC(=O)CN1C2CCC1CC(C#N)(c1cccnc1)C2", "note": "(stereo not shown) [Compound 50]", "Score (grading of mortality)": "A (A indicates 80-100% mortality)"}
    ]}
  ]
}
